This is an account of results in US20120283316A1, “Delivery of Therapeutic Agents Using Oligonucleotide-Modified Nanoparticles As Carriers” (priority 2009, published 2012).

SMILES strings stand for the structures. Where two headings read alike, the source gives them in different places.

Series [1] relates to SKOV-3 ovarian cancer cells. The experiment in a line: MTT assay (cytotoxicity) in SKOV-3 cells. It counts as cell-based. Particulars: Homo sapiens, SK-OV-3, paclitaxel-equivalent concentration. On the procedure:
MCF7, SKOV-3 and MES-SA/Dx5 cells were purchased from American Type Culture Collection (ATCC, Manassas, Va., USA). Media, Dulbecco's phosphate buffered saline (DPBS), and 0.25% trypsin/EDTA were purchased from Invitrogen (Carlsbad, Calif., USA). MCF7 cells were cultured in Eagle's Minimum Essential Medium (EMEM) supplemented with 10% fetal bovine serum (FBS) and 0.01 mg/ml bovine insulin. SKOV-3 and MES-SA/Dx5 cells were cultured using McCoy's 5A modified media supplemented with 10% FBS. All experiments were performed in the aforementioned cell-specific media in a 5% CO2 incubator at 37° C.
Briefly, cells were seeded on 96-well plates for 24 hours before the assay at a density of 1.5×10^4 cells/well. Following 24 hours of growth, media was replaced with 200 μL of corresponding sample solutions, which were freshly prepared at varying concentrations in complete cell culture media. Cells in media containing 10% FBS with nothing added were used as controls. After 12 hours or 48 hours of treatment, cells were rinsed and cultured with fresh medium containing 0.5 mg/mL of MTT for an additional 3 hours. […] The optical density at 570 nm was measured using a Safire microplate reader (Tecan Systems, Inc., San Jose, Calif.). Background absorbance at 690 nm was subtracted. Values were expressed as a percentage of the control (incubated with media alone). […]
(In general: Tetrazolium dyes change colour on reduction, which living cells bring about.)

The subject of series [2] is MES-SA/Dx5 cells. The experiment in a line: MTT assay (cytotoxicity) in paclitaxel-resistant MES-SA/Dx5 cells. The class given is cell-based, human. On the procedure: (§1) MCF7, SKOV-3 and MES-SA/Dx5 cells were purchased from American Type Culture Collection (ATCC, Manassas, Va., USA). […] MCF7 cells were cultured in Eagle's Minimum Essential Medium (EMEM) supplemented with 10% fetal bovine serum (FBS) and 0.01 mg/ml bovine insulin. SKOV-3 and MES-SA/Dx5 cells were cultured using McCoy's 5A modified media supplemented with 10% FBS. All experiments were performed in the aforementioned cell-specific media in a 5% CO2 incubator at 37° C.
(§2) Following 24 hours of growth, media was replaced with 200 μL of corresponding sample solutions, which were freshly prepared at varying concentrations in complete cell culture media. Cells in media containing 10% FBS with nothing added were used as controls. After 12 hours or 48 hours of treatment, cells were rinsed and cultured with fresh medium containing 0.5 mg/mL of MTT for an additional 3 hours. Following careful aspiration of MTT solution and media after MTT incubation, 200 μL of MTT solubilization solution was added to each well and thoroughly mixed. The optical density at 570 nm was measured using a Safire microplate reader (Tecan Systems, Inc., San Jose, Calif.). Background absorbance at 690 nm was subtracted. Values were expressed as a percentage of the control (incubated with media alone). All conditions were done in sextuplicate in two independent experiments for each cell line.

Series [3] in a line: Dynamic light scattering (DLS) hydrodynamic size and dispersion in PBS. It counts as physicochemical. Particulars: 25 μM paclitaxel in PBS, DLS and TEM. On the procedure: PTX-DNA-AuNPs or DNA-AuNPs were resuspended in 200 uL PBS buffer with oligonucleotide strands of an equivalent concentration of 25 μM. Hydrodynamic size measurements were conducted using the Zetasizer Nano ZS (Malvern, Worcestershire, U.K.). The size measurements were performed at 25° C. at a 173° scattering angle in disposable micro cuvettes (minimum volume 40 μL, Malvern, Worcestershire, U.K.). The mean hydrodynamic diameter was determined by cumulative analysis. Transmission Electron Microscopy (TEM) was performed using a 200 kV Hitachi H-8100 TEM (EPIC, Northwestern University). Diluted PTX-DNA-AuNPs in deionized water were pipetted onto a commercial carbon TEM grid (Ted Pella Inc., Redding, Calif.). Upon air drying for 2 hours, samples were then observed within a Hitachi H-8100 TEM.

A further series deals with MCF7 cells. The experiment in a line: MTT assay (cytotoxicity) in MCF7 cells. As to conditions: Homo sapiens. The class given is cell-based. The procedure:
as §1, §2

For series [4], the system named is MES-SA/Dx5 cells. The series is described as follows: Fluorescent TUNEL assay (apoptosis) in MES-SA/Dx5 cells. The class given is cell-based, human. As to conditions: MES-SA/Dx5, 48 hours, 100 nM paclitaxel or DNA strand.
Method: MCF7 and MES-SA/Dx5 cells were seeded on 0.17 mm thick coverslips in 12-well plates at a density of 2×10^5 cells/well for 24 hours prior to fluorescent TUNEL assay. Cells were treated with nothing, DNA-AuNPs at a DNA strand concentration of 100 nM (negative controls), 100 nM of free paclitaxel and compound 1 (positive controls), PTX-DNA-AuNPs at the equivalent paclitaxel concentrations of 50 nM and 100 nM (samples), respectively, for 48 hours. Live cells were rinsed and stained in accordance with instructions and materials for adherent cultured cells provided by Chemicon International ApopTag Plus Fluorescein In situ Apoptosis Detection Kit S7111 (Temecula, Calif.). ApopTag utilizes the terminal deoxynucleotidyl transferase (TdT) enzyme to amplify the fluorescein-conjugated anti-digoxigenin antibody, a secondary antibody towards digoxigenin-labeled nucleotide-labeled 30-OH termini on DNA fragments. Images were acquired on a Zeiss LSM 510 inverted microscope (computer controlled using Zeiss Zen software).
MCF7 or MES-SA/Dx5 cells were incubated with drug-free DNA-AuNPs, free paclitaxel, compound 1 and PTX-DNA@AuNPs, respectively, at varying concentrations for 48 hours.

The term IC50 denotes the concentration needed to halve the response being measured. A word on the viability: it is a per cent measure of how many cells are alive, often set against a control. As for `CC(=O)O[C@H]1C(=O)[C@@]2(C)[C@H]([C@H](OC(=O)c3ccccc3)[C@]3(O)C[C@H](OC(=O)[C@H](O)[C@@H](NC(=O)c4ccccc4)c4ccccc4)C(C)=C1C3(C)C)[C@]1(OC(C)=O)CO[C@@H]1C[C@@H]2O` [paclitaxel], the concentration for half-maximal inhibition (IC50) in series [1] (SKOV-3, 12 h incubation) is 176 nM; in series [1] (SKOV-3, 48 h incubation), 28.9 nM; with MES-SA/Dx5 cells [2] (Homo sapiens, MES-SA/Dx5, 12 h incubation, paclitaxel-equivalent concentration, read-out: IC50 (nM Paclitaxel)), more than 1000 nM; in the series with MES-SA/Dx5 cells [2] (Homo sapiens, MES-SA/Dx5, 48 h incubation, paclitaxel-equivalent concentration, read-out: IC50 (nM Paclitaxel)), more than 1000 nM; in the series with MES-SA/Dx5 cells [2] (Homo sapiens, resistant MES-SA/Dx5 cells, 12 hours and 48 hours, read-out: IC50 values), more than 1000 nM; with MCF7 cells (MCF7, 12 h incubation, paclitaxel-equivalent concentration, read-out: IC50 (nM Paclitaxel)), more than 1000 nM. Moreover, the IC50 with MCF7 cells (MCF7, 12 hour incubation, read-out: IC50 value) is more than 1000 nM; with MCF7 cells (MCF7, 48 h incubation, paclitaxel-equivalent concentration, read-out: IC50 (nM Paclitaxel)), 193 nM. The viability at 0.2 µM with MES-SA/Dx5 cells [2] (Homo sapiens, 48 h, MES-SA/Dx5, 2 days incubation, 200 nM drug concentration, % of control, read-out: cell viability) was 76%. Moreover, the therapeutic activity entry with MES-SA/Dx5 cells [2] (paclitaxel-resistant MES-SA/Dx5, 200 nM, 2 days) is “did not display any significant therapeutic activity”. Further, the “dispersion in PBS” value in series [3] is listed as “severe aggregation”. The “TUNEL staining (apoptosis)” value with MES-SA/Dx5 cells [4] is “lower fraction of TUNEL-positive signals”.
